Test results from patent US20120053053A1, “PYRIMIDINE DERIVATIVES AND THEIR USE AS HERBICIDES” (SYNGENTA CROP PROTECTION, LLC, priority 2009, published 2012).
“And” between values parts separate entries of the source, which are not always exact repeats. Identical values can stand only once.

Assays:
Format in all cases: in vivo
[1] = tested on: Alopecurus myosuroides (ALOMY); assay: Pre-emergence biological efficacy (percentage damage); settings: dose 1,000 g/ha, evaluated after 13 days, 100=total damage, 0=no damage; for pest or weed control at 1000 g/ha: Alopecurus myosuroides, 312 h
Protocol: (§1) Seeds of Alopecurus myosuroides (ALOMY), Setaria faberi (SETFA), Echinochloa crus-galli (ECHCG), Solanum nigrum (SOLNI), Amaranthus retoflexus (AMARE) and Ipomea hederaceae (IPOHE) were sown in standard soil in pots. After cultivation for one day under controlled conditions in a glasshouse (at 24/16° C., day/night; 14 hours light; 65% humidity), the plants were sprayed with an aqueous spray solution derived from the formulation of the technical active ingredient in acetone/water (50:50) solution containing 0.5% Tween 20 (polyoxyethylene sorbitan monolaurate, CAS RN 9005-64-5) to give a final dose of 250 or 1000 g/ha of test compound. The test plants were then grown under controlled conditions in the glasshouse (at 24/16° C., day/night; 14 hours light; 65% humidity) and watered twice daily. After 13 days the test was evaluated (100=total damage to plant; 0=no damage to plant).

[2] = tested on: Amaranthus retoflexus (AMARE); assay: as above; settings: dose 1,000 g/ha, evaluated after 13 days, 100=total damage, 0=no damage; for pest or weed control at 1000 g/ha: Amaranthus retroflexus, 312 h
Protocol: as §1

[3] = tested on: Echinochloa crus-galli (ECHCG); assay: as above; settings: dose 1,000 g/ha, evaluated after 13 days, 100=total damage, 0=no damage; for pest or weed control at 1000 g/ha: Echinochloa crus-galli, 312 h
Protocol: as §1

[4] = tested on: Ipomea hederaceae (IPOHE); assay: as above; settings: dose 1,000 g/ha, evaluated after 13 days, 100=total damage, 0=no damage; for pest or weed control at 1000 g/ha: Ipomoea hederacea, 312 h
Protocol: as §1

Setaria faberi (SETFA) [5] = assay: as above; settings: dose 1,000 g/ha, evaluated after 13 days, 100=total damage, 0=no damage; for pest or weed control at 1000 g/ha: Setaria faberi, 312 h
Protocol: as §1

Solanum nigrum (SOLNI) [6] = assay: as above; settings: dose 1,000 g/ha, evaluated after 13 days, 100=total damage, 0=no damage; for pest or weed control at 1000 g/ha: Solanum nigrum, 312 h
Protocol: as §1

[7] = tested on: Alopecurus myosuroides (ALOMY); assay: Post-emergence biological efficacy (percentage damage); settings: dose 1,000 g/ha, evaluated after 13 days, 100=total damage, 0=no damage; for pest or weed control at 1000 g/ha: Alopecurus myosuroides, 312 h
Protocol: as §1, with “for 8 days” for “for one day”, “grown on” for “grown”, “in a” for “in the”

[8] = tested on: Amaranthus retoflexus (AMARE); assay: as above; settings: dose 1,000 g/ha, evaluated after 13 days, 100=total damage, 0=no damage; for pest or weed control at 1000 g/ha: Amaranthus retroflexus, 312 h
Protocol: as §1, with “for 8 days” for “for one day”, “grown on” for “grown”, “in a” for “in the”

[9] = tested on: Echinochloa crus-galli (ECHCG); assay: as above; settings: dose 1,000 g/ha, evaluated after 13 days, 100=total damage, 0=no damage; for pest or weed control at 1000 g/ha: Echinochloa crus-galli, 312 h
Protocol: as §1, with “for 8 days” for “for one day”, “grown on” for “grown”, “in a” for “in the”

[10] = tested on: Ipomea hederaceae (IPOHE); assay: as above; settings: dose 1,000 g/ha, evaluated after 13 days, 100=total damage, 0=no damage; for pest or weed control at 1000 g/ha: Ipomoea hederacea, 312 h
Protocol: as §1, with “for 8 days” for “for one day”, “grown on” for “grown”, “in a” for “in the”

Setaria faberi (SETFA) [11] = assay: as above; settings: dose 1,000 g/ha, evaluated after 13 days, 100=total damage, 0=no damage; for pest or weed control at 1000 g/ha: Setaria faberi, 312 h
Protocol: as §1, with “for 8 days” for “for one day”, “grown on” for “grown”, “in a” for “in the”

Solanum nigrum (SOLNI) [12] = assay: as above; settings: dose 1,000 g/ha, evaluated after 13 days, 100=total damage, 0=no damage; for pest or weed control at 1000 g/ha: Solanum nigrum, 312 h
Protocol: as §1, with “for 8 days” for “for one day”, “grown on” for “grown”, “in a” for “in the”

C/C=C/c1c(N)nc(C2CC2)nc1C(=O)OC [2-62 (E)]
Percentage damage ALOMY, pre-emergence [1]: 10%
Percentage damage AMARE, pre-emergence [2]: 40%
Percentage damage ECHCG, pre-emergence [3]: 10%
Percentage damage IPOHE, pre-emergence [4]: 30%
Percentage damage SETFA, pre-emergence (Setaria faberi (SETFA) [5]): 0%
Percentage damage SOLNI, pre-emergence (Solanum nigrum (SOLNI) [6]): 70%
Percentage damage ALOMY, post-emergence [7]: 10%
Percentage damage AMARE, post-emergence [8]: 40%
Percentage damage ECHCG, post-emergence [9]: 10%
Percentage damage IPOHE, post-emergence [10]: 50%
Percentage damage SETFA, post-emergence (Setaria faberi (SETFA) [11]): 20%
Percentage damage SOLNI, post-emergence (Solanum nigrum (SOLNI) [12]): 70%

C/C=C\c1c(N)nc(C2CC2)nc1C(=O)OC [2-62 (Z)]
Percentage damage ALOMY, pre-emergence [1]: 20%
Percentage damage AMARE, pre-emergence [2]: 90%
Percentage damage ECHCG, pre-emergence [3]: 10%
Percentage damage IPOHE, pre-emergence [4]: 100%
Percentage damage SETFA, pre-emergence (Setaria faberi (SETFA) [5]): 20%
Percentage damage SOLNI, pre-emergence (Solanum nigrum (SOLNI) [6]): 100%
Percentage damage ALOMY, post-emergence [7]: 10%
Percentage damage AMARE, post-emergence [8]: 70%
Percentage damage ECHCG, post-emergence [9]: 10%
Percentage damage IPOHE, post-emergence [10]: 100%
Percentage damage SETFA, post-emergence (Setaria faberi (SETFA) [11]): 30%
Percentage damage SOLNI, post-emergence (Solanum nigrum (SOLNI) [12]): 70%

C/C=C/c1c(N)nc(-c2ccc(Cl)c(OC)c2F)nc1C(=O)OC [27-62 (E)]
Percentage damage ALOMY, pre-emergence [1]: 90%
Percentage damage AMARE, pre-emergence [2]: 50%
Percentage damage ECHCG, pre-emergence [3]: 90%
Percentage damage IPOHE, pre-emergence [4]: 90%
Percentage damage SETFA, pre-emergence (Setaria faberi (SETFA) [5]): 80%
Percentage damage SOLNI, pre-emergence (Solanum nigrum (SOLNI) [6]): 80%
Percentage damage ALOMY, post-emergence [7]: 90%
Percentage damage AMARE, post-emergence [8]: 100%
Percentage damage ECHCG, post-emergence [9]: 100%
Percentage damage IPOHE, post-emergence [10]: 90%
Percentage damage SETFA, post-emergence (Setaria faberi (SETFA) [11]): 100%
Percentage damage SOLNI, post-emergence (Solanum nigrum (SOLNI) [12]): 100%

C/C=C\c1c(N)nc(-c2ccc(Cl)c(OC)c2F)nc1C(=O)OC [27-62 (Z)]
Percentage damage ALOMY, pre-emergence [1]: 80%
Percentage damage AMARE, pre-emergence [2]: 100%
Percentage damage ECHCG, pre-emergence [3]: 90%
Percentage damage IPOHE, pre-emergence [4]: 100%
Percentage damage SETFA, pre-emergence (Setaria faberi (SETFA) [5]): 80%
Percentage damage SOLNI, pre-emergence (Solanum nigrum (SOLNI) [6]): 100%
Percentage damage ALOMY, post-emergence [7]: 70%
Percentage damage AMARE, post-emergence [8]: 100%
Percentage damage ECHCG, post-emergence [9]: 80%
Percentage damage IPOHE, post-emergence [10]: 100%
Percentage damage SETFA, post-emergence (Setaria faberi (SETFA) [11]): 90%
Percentage damage SOLNI, post-emergence (Solanum nigrum (SOLNI) [12]): 80%

C/C=C/c1c(N)nc(-c2ccc(Cl)c(N(C)C)c2F)nc1C(=O)OC [33-62 (E)]
Percentage damage ALOMY, pre-emergence [1]: 70%
Percentage damage AMARE, pre-emergence [2]: 100%
Percentage damage ECHCG, pre-emergence [3]: 90%
Percentage damage IPOHE, pre-emergence [4]: 0%
Percentage damage SETFA, pre-emergence (Setaria faberi (SETFA) [5]): 80%
Percentage damage SOLNI, pre-emergence (Solanum nigrum (SOLNI) [6]): 80%

C/C=C\c1c(N)nc(-c2ccc(Cl)c(N(C)C)c2F)nc1C(=O)OC [33-62 (Z)]
Percentage damage ALOMY, pre-emergence [1]: 30%
Percentage damage AMARE, pre-emergence [2]: 70%
Percentage damage ECHCG, pre-emergence [3]: 30%
Percentage damage IPOHE, pre-emergence [4]: 20%
Percentage damage SETFA, pre-emergence (Setaria faberi (SETFA) [5]): 30%
Percentage damage SOLNI, pre-emergence (Solanum nigrum (SOLNI) [6]): 60%
Percentage damage ALOMY, post-emergence [7]: 80% and 60%
Percentage damage AMARE, post-emergence [8]: 100%
Percentage damage ECHCG, post-emergence [9]: 80% and 70%
Percentage damage IPOHE, post-emergence [10]: 40% and 30%
Percentage damage SETFA, post-emergence (Setaria faberi (SETFA) [11]): 80% and 70%
Percentage damage SOLNI, post-emergence (Solanum nigrum (SOLNI) [12]): 80%

C=Cc1c(N)nc(C2CC2)nc1C(=O)OC [Compound 2-61, 4-Amino-2-cyclopropyl-5-ethenyl-6-methoxycarbonyl-pyrimidine]
pest or weed control at 1000 g/ha [1]: 40%
pest or weed control at 1000 g/ha [2]: 100%
pest or weed control at 1000 g/ha [3]: 80%
pest or weed control at 1000 g/ha [4]: 100%
pest or weed control at 1000 g/ha (Setaria faberi (SETFA) [5]): 20%
pest or weed control at 1000 g/ha (Solanum nigrum (SOLNI) [6]): 100%
pest or weed control at 1000 g/ha [7]: 40%
pest or weed control at 1000 g/ha [8]: 100%
pest or weed control at 1000 g/ha [9]: 60%
pest or weed control at 1000 g/ha [10]: 100%
pest or weed control at 1000 g/ha (Setaria faberi (SETFA) [11]): 80%
pest or weed control at 1000 g/ha (Solanum nigrum (SOLNI) [12]): 100%

C=C(C)c1c(N)nc(C2CC2)nc1C(=O)OC [Compound 2-64, 4-Amino-2-cyclopropyl-6-methoxycarbonyl-5-(prop-1-en-2-yl)-pyrimidine]
pest or weed control at 1000 g/ha [1]: 20%
pest or weed control at 1000 g/ha [2]: 100%
pest or weed control at 1000 g/ha [3]: 0%
pest or weed control at 1000 g/ha [4]: 100%
pest or weed control at 1000 g/ha (Setaria faberi (SETFA) [5]): 20%
pest or weed control at 1000 g/ha (Solanum nigrum (SOLNI) [6]): 80%
pest or weed control at 1000 g/ha [7]: 10%
pest or weed control at 1000 g/ha [8]: 60%
pest or weed control at 1000 g/ha [9]: 40%
pest or weed control at 1000 g/ha [10]: 70%
pest or weed control at 1000 g/ha (Setaria faberi (SETFA) [11]): 30%
pest or weed control at 1000 g/ha (Solanum nigrum (SOLNI) [12]): 80%

COC(=O)c1nc(C2CC2)nc(N)c1/C=C/C1CC1 [Compound 2-66, 4-Amino-2-cyclopropyl-5-(2-cyclopropyl-ethenyl)-6-methoxycarbonyl-pyrimidine]
pest or weed control at 1000 g/ha [1]: 0%
pest or weed control at 1000 g/ha [3]: 0%
pest or weed control at 1000 g/ha [4]: 0%
pest or weed control at 1000 g/ha (Setaria faberi (SETFA) [5]): 0%
pest or weed control at 1000 g/ha (Solanum nigrum (SOLNI) [6]): 0%
pest or weed control at 1000 g/ha [7]: 0%
pest or weed control at 1000 g/ha [8]: 50%
pest or weed control at 1000 g/ha [9]: 0%
pest or weed control at 1000 g/ha [10]: 40%
pest or weed control at 1000 g/ha (Setaria faberi (SETFA) [11]): 10%
pest or weed control at 1000 g/ha (Solanum nigrum (SOLNI) [12]): 60%

COC(=O)c1nc(-c2ccc(Cl)c(OC)c2F)nc(N)c1C1CC1 [Compound 27-58, 4-Amino-2-(4-chloro-2-fluoro-3-methoxyphenyl)-5-cyclopropyl-6-methoxycarbonyl-pyrimidine]
pest or weed control at 1000 g/ha [1]: 0%
pest or weed control at 1000 g/ha [3]: 0%
pest or weed control at 1000 g/ha [4]: 10%
pest or weed control at 1000 g/ha (Setaria faberi (SETFA) [5]): 0%
pest or weed control at 1000 g/ha (Solanum nigrum (SOLNI) [6]): 0%
pest or weed control at 1000 g/ha [7]: 10%
pest or weed control at 1000 g/ha [8]: 90%
pest or weed control at 1000 g/ha [9]: 20%
pest or weed control at 1000 g/ha [10]: 60%
pest or weed control at 1000 g/ha (Setaria faberi (SETFA) [11]): 40%
pest or weed control at 1000 g/ha (Solanum nigrum (SOLNI) [12]): 80%
